Measurements as given in the supplement of paper PMC8671470.

Key:
Details in all cases: 72 h
HL-60 [1] = experiment: area under dose-response curve (viability, 1 nM-10 uM) (fraction (0-1)); higher = more sensitive
Outline: (§1)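 HL-60 cells grown in RPMI 1640 with 10% FBS were rescreened against the full library in 384-well plates, in duplicate, at five tenfold concentrations from 1 to 10,000 nM, alongside DMSO or 100 nM of one of three metabolic inhibitors for 72 h at 37 °C, 5% CO2. Reference wells contained DMSO or 10 μM proteasome inhibitor. Viability was read with CellTiter-Glo and normalised to these reference wells, and where reported, area under the curve was taken from four-parameter log-logistic fits in drc and PharmacoGx.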

HL-60 [2] = experiment: cell viability (% survival relative to DMSO control); higher = less cytotoxic
Outline: as §1

[3] = tested on: myeloid leukemia patient primary cells Pat.3; experiment: cell viability (% survival relative to DMSO control); higher = less cytotoxic
Outline: (§2)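 Mononuclear cells from patients with AML or CML were thawed, purified on Ficoll and placed in RPMI 1640 with 10% FBS at 10,000 cells/well on 384-well plates. The plates came pre-printed with 70 compounds at five tenfold concentrations spanning 1–10,000 nM, in duplicate, and cells were exposed for 72 h. CellTiter-Glo gave viability, scaled between DMSO wells and wells with 10 μM proteasome inhibitor. Where reported, area under the curve was obtained from log-logistic fits with four parameters using the drc and PharmacoGx R packages.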

[4] = tested on: myeloid leukemia patient primary cells Pat.4; experiment: as above
Outline: as §2

[5] = tested on: myeloid leukemia patient primary cells Pat.11; experiment: as above
Outline: as §2

[6] = tested on: myeloid leukemia patient primary cells Pat.15; experiment: as above
Outline: as §2

[7] = tested on: myeloid leukemia patient primary cells Pat.9; experiment: as above
Outline: as §2

[8] = tested on: myeloid leukemia patient primary cells Pat.10; experiment: as above
Outline: as §2

[9] = tested on: myeloid leukemia patient primary cells Pat.1; experiment: as above
Outline: as §2

[10] = tested on: myeloid leukemia patient primary cells Pat.2; experiment: as above
Outline: as §2

[11] = tested on: myeloid leukemia patient primary cells Pat.12; experiment: as above
Outline: as §2

[12] = tested on: myeloid leukemia patient primary cells Pat.6; experiment: as above
Outline: as §2

[13] = tested on: myeloid leukemia patient primary cells Pat.14; experiment: as above
Outline: as §2

[14] = tested on: myeloid leukemia patient primary cells Pat.7; experiment: as above
Outline: as §2

[15] = tested on: myeloid leukemia patient primary cells Pat.5; experiment: as above
Outline: as §2

[16] = tested on: myeloid leukemia patient primary cells Pat.13; experiment: as above
Outline: as §2

[17] = tested on: myeloid leukemia patient primary cells Pat.8; experiment: as above
Outline: as §2

Cc1nnc(-c2ccc(N3CCC(Oc4ccccc4C(F)(F)F)CC3)nn2)s1 [MF-438]
Details | area under dose-response curve, co-treatment: AZD3965 100 nM | area under dose-response curve, co-treatment: DMSO vehicle | area under dose-response curve, co-treatment: GSK2194069 100 nM | area under dose-response curve, co-treatment: pictilisib 100 nM | cell viability, 1 nM [%] | cell viability, 10 nM [%] | cell viability, 100 nM [%] | cell viability, 1000 nM [%] | cell viability, 10000 nM [%]
HL-60 [1] | < 0.0301 | < 0.0301 | < 0.0301 | < 0.0301 | – | – | – | – | –
[3] | – | – | – | – | 76.3 | 77.5 | 72.9 | 61.3 | 74.1
[4] | – | – | – | – | 83.7 | 98.5 | 87.9 | 85.8 | 68.8
[5] | – | – | – | – | 94 | 96.6 | > 100 | > 100 | 90.6
[6] | – | – | – | – | 97.4 | 89.5 | 98.7 | 86.9 | 69.8
[7] | – | – | – | – | 56.2 | 91.2 | 87.2 | 69.3 | 75.2
[8] | – | – | – | – | 80.2 | 89.2 | 96.8 | 87.5 | > 100
[9] | – | – | – | – | 78.8 | 85.8 | 97.1 | 90.5 | 82.8
[10] | – | – | – | – | > 100 | 99.8 | 95.4 | 87.6 | 89.7
[11] | – | – | – | – | 99.4 | 97.1 | > 100 | 87.5 | 90.5
[12] | – | – | – | – | 95.4 | 98.9 | 99.5 | 83 | 85.3
[13] | – | – | – | – | 85 | > 100 | 87.8 | 83.5 | 92.2
[14] | – | – | – | – | > 100 | 93.3 | 99.7 | 74.4 | 41.2
[15] | – | – | – | – | 32.8 | 93.8 | 67.7 | 46.4 | 27.4
[16] | – | – | – | – | 86.8 | 86.4 | 86.9 | 80.8 | 97.4
[17] | – | – | – | – | 86.9 | 94.5 | 77.7 | 86.9 | 94.9

cell viability [%], HL-60 [2]
Details | 0.001 µM | 0.01 µM | 0.1 µM | 1 µM | 10 µM
co-treatment: AZD3965 100 nM | 88.9 | 99.9 | 104 | 101 | 89.8
co-treatment: DMSO vehicle | 101 | 101.6 | 102 | 100 | 94.9
co-treatment: GSK2194069 100 nM | 92.9 | 104 | 93.3 | 101 | 86.5
co-treatment: pictilisib 100 nM | 109 | 106 | 100 | 94.07 | 98.1
